Experimental data taken from patent US11214803B2, “Modulators of YAP1 expression” (Ionis Pharmaceuticals, Inc., priority 2019, dated 2022).
Strand notation (5' to 3'): a small letter for the sugar, then the base; units joined by * are phosphorothioate-linked, units joined directly phosphodiester-linked; [ ] holds rarer units or linkages, { } end groups; capitals alone tell only the bases. e = 2'-O-(2-methoxyethyl) (MOE); k = constrained ethyl (cEt); [5mC] = 5-methylcytosine; d = 2'-deoxy (DNA); m = 2'-O-methyl

Test system: Yap1 mRNA
Assay: Dose-dependent inhibition of human Yap1 in SNU-449 cells (Example 9, RTS36584)
Type: cell-based
Conditions: free uptake; for % UTC (Yap1 mRNA): approximately 48 hours; for IC50: linear regression on a log/linear plot
Procedure: Modified oligonucleotides described in the studies above were tested at various doses in SNU-449 cells. Cultured SNU-449 cells at a density of 10,000 cells per well were treated using free uptake with modified oligonucleotides diluted to concentrations described in the tables below. After approximately 48 hours, Yap1 mRNA levels were measured as previously described using the Human Yap1 primer-probe set RTS36584. Yap1 mRNA levels were normalized to total RNA content, as measured by RIBOGREEN®. Results are presented in the tables below as percent control of the amount of Yap1 mRNA relative to untreated control cells (% UTC). IC50s were calculated using a linear regression on a log/linear plot of the data in excel.

Row | Substance | % UTC (Yap1 mRNA) (31.3 nM) [% UTC] | % UTC (Yap1 mRNA) (125.0 nM) [% UTC] | % UTC (Yap1 mRNA) (500.0 nM) [% UTC] | % UTC (Yap1 mRNA) (2000.00 nM) [% UTC] | IC50 [nM]
1 | 1200858 (kA*kA*kG*dT*dG*mU*dA*dT*dG*dT*d[5mC]*dA*dG*kA*kA*kG; antisense) [compound 1200858] | 71 | 39 | 14 | 4 | 100
2 | 1200789 (G_{ks}G_{ks}A_{ks}A_{ds}A_{ds}U_{ys}T_{ds}G_{ds}T_{ds}^{m}C_{ds}T_{ds}^{m}C_{ds}A_{ds}T_{ks}G_{ks}^{m}C_{k}; as printed in the source, key not given here) [compound 1200789] | 60 | 32 | 15 | 5 | 50
3 | 1197309 (kG*kT*kA*dA*mU*dA*dT*dT*dG*d[5mC]*dA*dA*dT*k[5mC]*kT*kG; antisense) [compound 1197309] | 91 | 63 | 30 | 9 | 200
4 | 1198911 (kG*kA*dG*dG*dT*dA*dT*dA*dA*d[5mC]*dT*kG*dG*kG*d[5mC]*kA; antisense) [compound 1198911] | 62 | 31 | 12 | 7 | 50
5 | 1200797 (kA*kT*kT*dA*dG*mA*dG*dT*dA*dT*dG*dT*dG*kG*k[5mC]*kA; antisense) [compound 1200797] | 84 | 52 | 23 | 11 | 200
6 | 1200788 (kG*kA*kA*dA*dT*mU*dG*dT*d[5mC]*dT*d[5mC]*dA*dT*kG*k[5mC]*k[5mC]) [compound 1200788] | 61 | 38 | 19 | 9 | 100
7 | 1198805 (kA*kT*dT*dG*dT*d[5mC]*dT*d[5mC]*dA*dT*dG*k[5mC]*e[5mC]*kT*eT*kA; antisense) [compound 1198805] | 61 | 42 | 20 | 7 | 100
8 | 1200798 (kT*kA*kT*dT*dA*mG*dA*dG*dT*dA*dT*dG*dT*kG*kG*k[5mC]; antisense) [compound 1200798] | 77 | 44 | 17 | 7 | 100
9 | 1197313 (kA*kG*kT*dG*mU*dA*dT*dG*dT*d[5mC]*dA*dG*dA*kA*kG*kA; antisense) [compound 1197313] | 71 | 38 | 16 | 6 | 100
10 | 1198696 (kT*kG*dT*dA*dT*dG*dT*d[5mC]*dA*dG*dA*dA*kG*eA*kG*eT) [compound 1198696] | 58 | 31 | 11 | 2 | 40
11 | 1198510 (k[5mC]*kT*d[5mC]*dT*dT*dA*dT*dA*dT*dG*dG*eT*kT*eT*kT*eG; antisense) [compound 1198510] | 71 | 44 | 18 | 6 | 100
12 | 1198613 (kA*kA*kA*dG*dT*dG*dT*dA*dT*dG*dT*d[5mC]*kA*kG*kA*eA; antisense) [compound 1198613] | 80 | 25 | 7 | 2 | 100
13 | 1198799 (k[5mC]*eT*kA*dA*dG*dT*dA*dA*dG*dG*dT*dT*eT*e[5mC]*k[5mC]*k[5mC]; antisense) [compound 1198799] | 62 | 35 | 13 | 4 | 100
14 | 1198484 (kG*k[5mC]*dA*d[5mC]*dT*dT*dT*dT*dA*d[5mC]*dA*eT*kT*eA*kG*eG) [compound 1198484] | 80 | 45 | 24 | 12 | 100
15 | 1198718 (kG*eA*kA*dA*dT*dT*dG*dT*d[5mC]*dT*d[5mC]*dA*eT*eG*k[5mC]*k[5mC]; antisense) [compound 1198718] | 87 | 37 | 14 | 4 | 100
16 | 1198365 (k[5mC]*kT*kA*dA*dG*dT*dA*dA*dG*dG*dT*dT*kT*e[5mC]*k[5mC]*e[5mC]; antisense) [compound 1198365] | 59 | 38 | 15 | 5 | 100
17 | 1198289 (kG*kG*kA*dA*dA*dT*dT*dG*dT*d[5mC]*dT*d[5mC]*kA*eT*kG*e[5mC]; antisense) [compound 1198289] | 72 | 41 | 18 | 9 | 100
18 | 1200784 (kT*kG*kT*d[5mC]*dT*mC*dA*dT*dG*d[5mC]*d[5mC]*dT*dT*kA*kT*kA; antisense) [compound 1200784] | 70 | 51 | 26 | 12 | 100
19 | 1198656 (kG*k[5mC]*dA*d[5mC]*dT*dT*dT*dT*dA*d[5mC]*dA*dT*kT*eA*kG*eG; antisense) [compound 1198656] | 55 | 22 | 8 | 3 | < 30
20 | 1074462 (kG*kG*kA*dA*dA*dT*dT*dG*dT*d[5mC]*dT*d[5mC]*dA*kT*kG*k[5mC]; antisense) [compound 1074462] | 90 | 38 | 13 | 3 | 100
21 | 1198642 (kT*kA*dT*dT*dA*dG*dA*dG*dT*dA*dT*dG*kT*eG*kG*e[5mC]; antisense) [compound 1198642] | 79 | 48 | 15 | 4 | 100
22 | 1009325 (kA*kG*kA*dG*dT*dA*dT*dG*dT*dG*dG*d[5mC]*dA*kA*kT*kA; antisense) [compound 1009325] | 59 | 36 | 16 | 4 | 100
23 | 1198371 (kA*dT*dT*dG*dT*d[5mC]*dT*d[5mC]*dA*dT*dG*k[5mC]*e[5mC]*kT*eT*kA; antisense) [compound 1198371] | 85 | 66 | 46 | 21 | 300
